Source: ChEMBL document CHEMBL6134849, “A Water-Soluble Aggregation-Induced Emission Photosensitizer with Intrinsic Antibacterial Activity as an Antiplanktonic and Antibiofilm Therapeutic Agent” (J Med Chem, 2025)
Active and inactive are the calls of the source.

Tests used:
[1] = Induction of type-I ROS generation in PBS assessed as increase in hydroxyl radical by measuring increase in HPF fluorescence intensity at 10 uM irradiated with 660 nm 60 mW/cm2 light for 15 mins by HPF probe based plate reader analysis; assay type: functional
[2] = Induction of type-I ROS generation in PBS assessed as increase in singlet oxygen by measuring increase in SOSG fluorescence intensity at 10 uM irradiated with 660 nm 60 mW/cm2 light for 15 mins by SOSG probe based plate reader analysis; assay type: functional
[3] = Induction of type-I ROS generation in PBS assessed as increase in nonspecific ROS by measuring increase in DHR123 fluorescence intensity at 10 uM irradiated with 660 nm 60 mW/cm2 light for 15 mins by DHR123 probe based plate reader analysis; assay type: functional
[4] = Induction of type-II ROS generation in PBS assessed as increase in nonspecific ROS by measuring increase in DHR123 fluorescence intensity at 10 uM irradiated with 660 nm 60 mW/cm2 light for 15 mins by DHR123 probe based plate reader analysis; assay type: functional
[5] = Induction of type-II ROS generation in PBS assessed as increase in singlet oxygen by measuring increase in SOSG fluorescence intensity at 10 uM irradiated with 660 nm 60 mW/cm2 light for 15 mins by SOSG probe based plate reader analysis; assay type: functional
Lipopolysaccharide (LPS) = experiment: Displacement of BODIPY-TR Cadaverine from Pseudomonas aeruginosa lipopolysaccharide (LPS) assessed as increase in fluorescence intensity at 10 uM incubated for 30 mins by fluorescence based plate reader analysis
[6] = Induction of […] ROS generation in PBS assessed as increase in hydroxyl radical by measuring increase in HPF fluorescence intensity at 10 uM irradiated with 660 nm 60 mW/cm2 light for 15 mins by HPF probe based plate reader analysis; assay type: functional
Lipoteichoic acid = experiment: Displacement of BODIPY-TR Cadaverine from Staphylococcus aureus lipoteichoic acid (LTA) assessed as increase in fluorescence intensity at 10 uM incubated for 30 mins by fluorescence based plate reader analysis

Measured: Activity

CC[n+]1c(/C=C/c2ccc(-c3ccc(N(c4ccc(OCCC[N+](C)(C)C)cc4)c4ccc(OCCC[N+](C)(C)C)cc4)cc3)s2)sc2ccccc21
active: all assays above
